Patent US10329542B2, “HBV RNAse H purification and enzyme inhibitors” (Saint Louis University, priority 2012, dated 2019)
Like-named read-outs stand apart in the source and are kept apart here.

Key:
[1] = target: T1, HBV genotype D RNAseH (HRHPL) (Hepatitis B virus genotype D subtype ayw, UniProt P03156, INS679M); assay: Oligonucleotide-directed RNAseH cleavage assay, HBV genotype D; type: biochemical; conditions: for Residual activity at 10 uM, Genotype D: ± standard deviation, 3 to 7 replicates; for Activity vs. HBV Biochemical vs. gtD: class by concentration giving inhibition (10, 20, 60 μM); for Residual activity at 10 uM, Genotype D / Inhibition of HBV genotype D RNAseH: 10 μM; for remaining activity at 10 µM: read-out: Residual activity at 10 uM, Genotype D; for IC50: read-out: IC50 against HBV genotype D RNAseH
T1 construct: HRHPL contains HBV genotype D (Genbank V01460) polymerase residues 684-845; made in house; host or cells: E. coli BL21 codon+

[2] = target: T2, chimeric HBV:HIV RNAseH HHC1 (Hepatitis B virus genotype D subtype ayw, UniProt P03156, DELINS787-795[…]/INS679M); assay: Oligonucleotide-directed RNAseH cleavage assay, chimeric HHC1; type: biochemical; conditions: 10 μM; ± standard deviation, 3 to 7 replicates
T2 construct: HHC1 is an HRHPL derivative; made in house; host or cells: E. coli BL21 codon+
Summary of the method: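 Bacterially expressed C-terminal His-tagged HHC1 (HRHPL, HBV genotype D pol 684-845, with residues 800-808 swapped for HIV RNAseH helix D) extract mixed with internally 32P-labeled DRF+ RNA and oligonucleotide D2507- (D2526+ negative control), 42 °C, 90 min. Products resolved by 12% SDS-PAGE, autoradiographed and quantified; compounds added in DMSO, DMSO vehicle control.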

T1 sequence (P03156 680-832, added parts left off, stated change not applied): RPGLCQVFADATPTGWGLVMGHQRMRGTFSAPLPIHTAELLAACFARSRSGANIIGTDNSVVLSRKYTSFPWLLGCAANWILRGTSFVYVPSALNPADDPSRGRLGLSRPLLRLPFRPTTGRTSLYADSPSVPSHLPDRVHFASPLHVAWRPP
T2 sequence (P03156 680-786, added parts left off, stated change not applied): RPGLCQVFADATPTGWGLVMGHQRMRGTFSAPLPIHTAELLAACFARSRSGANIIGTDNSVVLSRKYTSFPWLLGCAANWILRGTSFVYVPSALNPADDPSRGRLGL

SMILES	Residual activity at 10 uM, Genotype D [1] [Percent DMSO control]	Activity vs. HBV Biochemical vs. gtD [1]	Residual activity at 10 uM, HHC1 [2] [Percent DMSO control]	further results
Cc1c2cc(O)c(=O)cc-2oc2cc(O)c(O)cc12 [Compound 8]	33 ± 17	++ (++ inhibition at 20 μM)	55 ± 18	Inhibition ([1]; below 5 μM): ineffective; Inhibition ([1]; between 10 and 30 μM): 40-85%
COc1cc2c(cc1Cc1cccc(Cl)c1F)c(=O)c(C(=O)O)cn2[C@H](CO)C(C)C [Compound 10, Elvitegravir, reference compound]	–	++ (++ inhibition at 20 μM)	–	Inhibition of HBV genotype D RNAseH [1]: inhibited the HBV RNAseH; remaining activity at 10 µM [1]: 30 ± 8%
Cc1nnc(C(=O)NC(C)(C)c2nc(C(=O)NCc3ccc(F)cc3)c(O)c(=O)n2C)o1 [Compound 11, Raltegravir, reference compound]	–	++ (++ inhibition at 20 μM)	–	Inhibition of HBV genotype D RNAseH [1]: inhibited the HBV RNAseH; remaining activity at 10 µM [1]: 29 ± 18%
NCc1ccc(-c2ccc(Cc3cc(=O)n(O)c4ncccc34)cc2)cc1 [Compound 12, napthyridinone]	28 ± 12	+++ (+++ inhibition at 10 μM)	32 ± 8	IC50 [1]: 2.5 µM
COc1ccc2ccccc2c1C=NNC(=O)c1cc(O)c(O)c(O)c1 [Compound 14]	46 ± 20	− (− no inhibition at 60 μM)	72 ± 2	–
CCOc1ccc(-c2c3cc(O)c(=O)cc-3oc3cc(O)c(O)cc23)cc1 [Compound 30]	23 ± 6	+++ (+++ inhibition at 10 μM)	58 ± 12	–
Cc1cc(=O)oc2cc(O)c(O)cc12 [Compound 34]	30 ± 15	++ (++ inhibition at 20 μM)	39 ± 4	–
[N-]=[N+]=NCc1cccc(C(=O)CC(=O)C(=O)O)c1 [Compound 40]	21 ± 16	+++ (+++ inhibition at 10 μM)	44 ± 10	–
CC(C)c1ccc(O)c(=O)c(O)c1 [Compound 46, beta-thujaplicinol]	–	+++ (+++ inhibition at 10 μM)	–	Difference between IC50 against HIV-1 RNAseH and HBV RNAseH [1]: ~10 fold; IC50 ([1]; listed as β-thujaplicinol): 6 µM; IC50 ([1]; listed as βTJ): 5.9 ± 0.7 µM
